Results from the CheMixHub viscosity set.
± gives the uncertainty stated by the source.

Experiment: xn = mol fraction of the nth substance listed

Which viscosity (298.15 K, 101 kPa, x2 = 0.05) does the source give for `CCCCCCCCO` + CCO here?
Its viscosity is 6.909 ± 0.067 mPa·s.

And the viscosity (298.15 K, 101 kPa, x2 = 0.1)?
The viscosity was 6.475 ± 0.062 mPa·s.

What about the viscosity (298.15 K, 101 kPa, x2 = 0.15) of the same molecule?
Its viscosity is 6.058 ± 0.058 mPa·s.

What about the viscosity (298.15 K, 101 kPa, x2 = 0.2) of the same molecule?
The viscosity was 5.658 ± 0.054 mPa·s.

What about the viscosity (298.15 K, 101 kPa, x2 = 0.25) of the same molecule?
The viscosity was 5.273 ± 0.05 mPa·s.

And the viscosity (298.15 K, 101 kPa, x2 = 0.3)?
Its viscosity is 4.903 ± 0.046 mPa·s.

And the viscosity (298.15 K, 101 kPa, x2 = 0.35)?
Its viscosity is 4.546 ± 0.043 mPa·s.

And the viscosity (298.15 K, 101 kPa, x2 = 0.4)?
The viscosity was 4.202 ± 0.039 mPa·s.

And the viscosity (298.15 K, 101 kPa, x2 = 0.45)?
Its viscosity is 3.871 ± 0.036 mPa·s.

What about the viscosity (298.15 K, 101 kPa, x2 = 0.5) of the same molecule?
Its viscosity is 3.552 ± 0.032 mPa·s.

What about the viscosity (298.15 K, 101 kPa, x2 = 0.55) of the same molecule?
The viscosity was 3.245 ± 0.029 mPa·s.

What about the viscosity (298.15 K, 101 kPa, x2 = 0.6) of the same molecule?
The viscosity was 2.951 ± 0.026 mPa·s.

And the viscosity (298.15 K, 101 kPa, x2 = 0.65)?
The viscosity was 2.668 ± 0.024 mPa·s.

What about the viscosity (298.15 K, 101 kPa, x2 = 0.7) of the same molecule?
Its viscosity is 2.398 ± 0.021 mPa·s.

And the viscosity (298.15 K, 101 kPa, x2 = 0.75)?
Its viscosity is 2.141 ± 0.019 mPa·s.

What about the viscosity (298.15 K, 101 kPa, x2 = 0.8) of the same molecule?
Its viscosity is 1.897 ± 0.017 mPa·s.

And the viscosity (298.15 K, 101 kPa, x2 = 0.85)?
The viscosity was 1.668 ± 0.015 mPa·s.

What about the viscosity (298.15 K, 101 kPa, x2 = 0.9) of the same molecule?
The viscosity was 1.453 ± 0.013 mPa·s.

And the viscosity (298.15 K, 101 kPa, x2 = 0.95)?
The viscosity was 1.255 ± 0.011 mPa·s.

What about the viscosity (303.15 K, 101 kPa, x2 = 0.1301) of the same molecule?
The viscosity was 5.471 ± 0.14 mPa·s.

What about the viscosity (303.15 K, 101 kPa, x2 = 0.243) of the same molecule?
Its viscosity is 4.607 ± 0.12 mPa·s.

And the viscosity (303.15 K, 101 kPa, x2 = 0.3339)?
The viscosity was 4.001 ± 0.1 mPa·s.

And the viscosity (303.15 K, 101 kPa, x2 = 0.5477)?
Its viscosity is 2.922 ± 0.075 mPa·s.

And the viscosity (303.15 K, 101 kPa, x2 = 0.6979)?
The viscosity was 2.169 ± 0.056 mPa·s.

What about the viscosity (303.15 K, 101 kPa, x2 = 0.8094) of the same molecule?
The viscosity was 1.689 ± 0.043 mPa·s.

And the viscosity (303.15 K, 101 kPa, x2 = 0.8948)?
Its viscosity is 1.362 ± 0.035 mPa·s.

And the viscosity (303.15 K, 101 kPa, x2 = 0.9602)?
Its viscosity is 1.121 ± 0.029 mPa·s.

And the viscosity (308.15 K, 101 kPa, x2 = 0.05)?
The viscosity was 4.994 ± 0.048 mPa·s.

What about the viscosity (308.15 K, 101 kPa, x2 = 0.1) of the same molecule?
Its viscosity is 4.73 ± 0.045 mPa·s.

What about the viscosity (308.15 K, 101 kPa, x2 = 0.15) of the same molecule?
Its viscosity is 4.466 ± 0.042 mPa·s.

And the viscosity (308.15 K, 101 kPa, x2 = 0.2)?
The viscosity was 4.204 ± 0.039 mPa·s.

And the viscosity (308.15 K, 101 kPa, x2 = 0.25)?
The viscosity was 3.945 ± 0.036 mPa·s.

And the viscosity (308.15 K, 101 kPa, x2 = 0.3)?
Its viscosity is 3.69 ± 0.034 mPa·s.

And the viscosity (308.15 K, 101 kPa, x2 = 0.35)?
Its viscosity is 3.441 ± 0.031 mPa·s.

What about the viscosity (308.15 K, 101 kPa, x2 = 0.4) of the same molecule?
Its viscosity is 3.198 ± 0.029 mPa·s.

And the viscosity (308.15 K, 101 kPa, x2 = 0.45)?
Its viscosity is 2.961 ± 0.027 mPa·s.

And the viscosity (308.15 K, 101 kPa, x2 = 0.5)?
Its viscosity is 2.733 ± 0.024 mPa·s.

And the viscosity (308.15 K, 101 kPa, x2 = 0.55)?
Its viscosity is 2.512 ± 0.022 mPa·s.

And the viscosity (308.15 K, 101 kPa, x2 = 0.6)?
The viscosity was 2.3 ± 0.02 mPa·s.

And the viscosity (308.15 K, 101 kPa, x2 = 0.65)?
The viscosity was 2.096 ± 0.018 mPa·s.

And the viscosity (308.15 K, 101 kPa, x2 = 0.7)?
The viscosity was 1.901 ± 0.017 mPa·s.

And the viscosity (308.15 K, 101 kPa, x2 = 0.75)?
The viscosity was 1.714 ± 0.015 mPa·s.

And the viscosity (308.15 K, 101 kPa, x2 = 0.8)?
The viscosity was 1.535 ± 0.013 mPa·s.

What about the viscosity (308.15 K, 101 kPa, x2 = 0.85) of the same molecule?
Its viscosity is 1.364 ± 0.012 mPa·s.

And the viscosity (308.15 K, 101 kPa, x2 = 0.9)?
Its viscosity is 1.199 ± 0.01 mPa·s.

And the viscosity (308.15 K, 101 kPa, x2 = 0.95)?
Its viscosity is 1.04 ± 0.0091 mPa·s.

What about the viscosity (318.15 K, 101 kPa, x2 = 0.05) of the same molecule?
Its viscosity is 3.689 ± 0.034 mPa·s.

And the viscosity (318.15 K, 101 kPa, x2 = 0.1)?
The viscosity was 3.51 ± 0.033 mPa·s.

What about the viscosity (318.15 K, 101 kPa, x2 = 0.15) of the same molecule?
The viscosity was 3.331 ± 0.031 mPa·s.

And the viscosity (318.15 K, 101 kPa, x2 = 0.2)?
Its viscosity is 3.154 ± 0.029 mPa·s.

And the viscosity (318.15 K, 101 kPa, x2 = 0.25)?
Its viscosity is 2.979 ± 0.027 mPa·s.

What about the viscosity (318.15 K, 101 kPa, x2 = 0.3) of the same molecule?
Its viscosity is 2.805 ± 0.025 mPa·s.

And the viscosity (318.15 K, 101 kPa, x2 = 0.35)?
The viscosity was 2.634 ± 0.024 mPa·s.

What about the viscosity (318.15 K, 101 kPa, x2 = 0.4) of the same molecule?
Its viscosity is 2.466 ± 0.022 mPa·s.

What about the viscosity (318.15 K, 101 kPa, x2 = 0.45) of the same molecule?
Its viscosity is 2.301 ± 0.021 mPa·s.

What about the viscosity (318.15 K, 101 kPa, x2 = 0.5) of the same molecule?
The viscosity was 2.14 ± 0.019 mPa·s.

And the viscosity (318.15 K, 101 kPa, x2 = 0.55)?
The viscosity was 1.982 ± 0.018 mPa·s.

And the viscosity (318.15 K, 101 kPa, x2 = 0.6)?
Its viscosity is 1.828 ± 0.016 mPa·s.

And the viscosity (318.15 K, 101 kPa, x2 = 0.65)?
The viscosity was 1.678 ± 0.015 mPa·s.

What about the viscosity (318.15 K, 101 kPa, x2 = 0.7) of the same molecule?
Its viscosity is 1.532 ± 0.013 mPa·s.

What about the viscosity (318.15 K, 101 kPa, x2 = 0.75) of the same molecule?
Its viscosity is 1.391 ± 0.012 mPa·s.

What about the viscosity (318.15 K, 101 kPa, x2 = 0.8) of the same molecule?
Its viscosity is 1.254 ± 0.011 mPa·s.

What about the viscosity (318.15 K, 101 kPa, x2 = 0.85) of the same molecule?
Its viscosity is 1.121 ± 0.0099 mPa·s.

And the viscosity (318.15 K, 101 kPa, x2 = 0.9)?
Its viscosity is 0.9926 ± 0.0088 mPa·s.

And the viscosity (318.15 K, 101 kPa, x2 = 0.95)?
Its viscosity is 0.8687 ± 0.0077 mPa·s.

Which results are given for `CC(=O)c1ccc(Cl)cc1` + CCOC(=O)OCC?
viscosity (303.15 K, 101 kPa, x2 = 0.0511): 2.657 ± 0.02 mPa·s; viscosity (303.15 K, 101 kPa, x2 = 0.1131): 2.468 ± 0.018 mPa·s; viscosity (303.15 K, 101 kPa, x2 = 0.1611): 2.309 ± 0.017 mPa·s; viscosity (303.15 K, 101 kPa, x2 = 0.2221): 2.126 ± 0.015 mPa·s; viscosity (303.15 K, 101 kPa, x2 = 0.2808): 1.948 ± 0.014 mPa·s; viscosity (303.15 K, 101 kPa, x2 = 0.3435): 1.765 ± 0.013 mPa·s; viscosity (303.15 K, 101 kPa, x2 = 0.4256): 1.557 ± 0.011 mPa·s; viscosity (303.15 K, 101 kPa, x2 = 0.5032): 1.372 ± 0.01 mPa·s; viscosity (303.15 K, 101 kPa, x2 = 0.6089): 1.162 ± 0.008 mPa·s; viscosity (303.15 K, 101 kPa, x2 = 0.6807): 1.045 ± 0.007 mPa·s; viscosity (303.15 K, 101 kPa, x2 = 0.7618): 0.927 ± 0.006 mPa·s; viscosity (303.15 K, 101 kPa, x2 = 0.8127): 0.877 ± 0.006 mPa·s; viscosity (303.15 K, 101 kPa, x2 = 0.8641): 0.825 ± 0.006 mPa·s; viscosity (303.15 K, 101 kPa, x2 = 0.9197): 0.774 ± 0.005 mPa·s; viscosity (303.15 K, 101 kPa, x2 = 0.9678): 0.725 ± 0.005 mPa·s

With `BrC(Br)Br` + CCOC(C)=O as the molecule, how does the viscosity (298 K, 101.3 kPa, x1 = 0.2713) read?
Its viscosity is 0.754 ± 0.01 mPa·s.

And the viscosity (298 K, 101.3 kPa, x1 = 0.529)?
Its viscosity is 1.141 ± 0.015 mPa·s.

And the viscosity (298 K, 101.3 kPa, x1 = 0.7683)?
Its viscosity is 1.565 ± 0.02 mPa·s.

What about the viscosity (318 K, 101.33 kPa, x1 = 0.2695) of the same molecule?
The viscosity was 0.6005 ± 0.039 mPa·s.

What about the viscosity (318 K, 101.33 kPa, x1 = 0.5228) of the same molecule?
Its viscosity is 0.8779 ± 0.039 mPa·s.

What about the viscosity (318 K, 101.33 kPa, x1 = 0.7671) of the same molecule?
The viscosity was 1.179 ± 0.039 mPa·s.
